The values that follow are results of earlier work, collected in US11744789B2, “Method for dyeing keratinous material, comprising the use of an organosilicon compound, a colored effect pigment and a sealing reagent III” (Henkel AG & Co. KGaA, priority 2019, dated 2023).

The conditions of the series: for solubility in water: 25° C.

For the compound `O=S(=O)(O)c1ccc(N=Nc2c(O)ccc3ccccc23)cc1` [Acid Orange 7, 4-[(2-hydroxy-1-naphthyl)azo]benzene sulphonate], the solubility in water result is on record as “more than 7 g/L”. As for `O=[N+]([O-])c1cc([N+](=O)[O-])c2ccc(S(=O)(=O)O)cc2c1O` [Acid Yellow 9, 8-hydroxy-5,7-dinitro-2-naphthalenesulfonic acid], the solubility in water result was “above 40 g/L”. In the case of `O=C(O)C1=NN(c2ccc(S(=O)(=O)O)cc2)C(=O)C1N=Nc1ccc(S(=O)(=O)O)cc1` (stereo not drawn) [Acid Yellow 23, 4,5-dihydro-5-oxo-1-(4-sulfophenyl)-4-((4-sulfophenyl)azo)-1H-pyrazole-3-carboxylic acid], the “solubility in water (in words)” value (at 25° C.) was “highly soluble in water”.
